Reference: US10669290B2, “Beta-lactamase inhibitors” (priority 2012, dated 2020)
Read-outs that look alike come from different tables or passages of the source.

Columns and labels:
Format in all cases: cell-based
E. coli ESBL4 CTX-M-15 = assay: Broth microdilution MIC, E. coli ESBL4; settings: Escherichia coli
Text: (§1) To determine the ability of test compounds to potentiate the inhibition of the growth of bacterial strains that produce beta-lactamase enzymes, classic cell based broth microdilution MIC assays were employed. Six bacteria strains producing beta-lactamase enzymes were used: E. coli expressing the Class A Extended Spectrum Beta-Lactamase (ESBL) CTX-M-15, E. cloacae expressing the Class C P99, K. pneumoniae expressing the Class A carbapenemase KPC-2, P. aeruginosa expressing the Class B carbapenemase VIM-2, K. pneumoniae expressing the class A carbapenemase KPC-2 and the class B carbapenemase VIM-4, and S. aureus producing the Class A penicillinase PC-1. The assay was conducted in Cation Adjusted Mueller Hinton Broth (CAMHB, BD #212322, BD Diagnostic Systems, Sparks, Md.). Bacteria strains were grown for 3-5 hours in CAMBH broth. Test compounds were added to a microtiter plate in 2-fold serial dilutions in CAMHB in a final concentration range of 32 μg/mL to 0.25 μg/ml. An overlay of CAMHB containing a Beta-lactam was added to the compounds at a final static concentration of 4 μg/ml. […] In addition to the titration of test compounds the MICs of a panel of control beta-lactams is also tested to ensure the strains are behaving consistently from test to test. Once the test compound and antibiotics are added the plates can be inoculated according to CLSI broth microdilution method. After inoculation the plates are incubated for 16-20 hours at 37° C. then the Minimal Inhibitory Concentration (MIC) of the test compound is determined visually.
(§2) Using the methodology described above in EXAMPLE III, exemplary compounds for Formula I or Formula Ia were evaluated for their ability to inhibit the growth of β-lactamase producing bacteria in the presence of a β-lactam antibiotic.

E. cl 144200 p99 AmpC = assay: Broth microdilution MIC, E. cloacae 144200; settings: Enterobacter cloacae
Text: as §1, §2

P. aerug. Ps296 VIM-2 = assay: Broth microdilution MIC, P. aeruginosa Ps296; settings: Pseudomonas aeruginosa; fixed meropenem 4 μg/mL, CAMHB, 16-20 hours 37° C.; read-out: MIC of exemplary compounds in presence of fixed β-lactams, Fixed Mero, P. aerug. Ps296 VIM-2
Text: as §1, §2

K.P. 156319 KPC-3 = assay: Broth microdilution MIC, K. pneumoniae 156319; settings: Klebsiella pneumoniae; fixed meropenem 4 μg/mL, CAMHB, 16-20 hours 37° C.; read-out: MIC of exemplary compounds in presence of fixed β-lactams, Fixed Mero, K.P. 156319 KPC-3
K.P. A-1797 KPC-2 VIM-4 = assay: Broth microdilution MIC, K. pneumoniae A-1797; settings: Klebsiella pneumoniae; fixed meropenem 4 μg/mL, CAMHB, 16-20 hours 37° C.; read-out: MIC of exemplary compounds in presence of fixed β-lactams, Fixed Mero, K.P. A-1797 KPC-2 VIM-4
Text: as §1, §2

S. aureus MSSA-7 PC-1 = assay: Broth microdilution MIC, S. aureus MSSA-7; settings: Staphylococcus aureus, fixed piperacillin 4 μg/mL, CAMHB, 16-20 hours 37° C., read-out: MIC of exemplary compounds in presence of fixed β-lactams, Fixed Pip, S. aureus MSSA-7 PC-1
Text: as §1, §2

[1] = ESBL4CTXM15, fixed ceftazidime 4 μg/mL, CAMHB, 16-20 hours 37° C., read-out: MIC of exemplary compounds in presence of fixed β-lactams, Fixed CAZ, E. coli ESBL4 CTX-M-15
[2] = fixed ceftazidime 4 μg/mL, CAMHB, 16-20 hours 37° C., read-out: MIC of exemplary compounds in presence of fixed β-lactams, Fixed CAZ, E. cl 144200 p99 AmpC

MIC (E. coli ESBL4 CTX-M-15; [1]) [µg/mL]	MIC (E. cl 144200 p99 AmpC; [2]) [µg/mL]	MIC (P. aerug. Ps296 VIM-2) [µg/mL]	MIC (K.P. 156319 KPC-3) [µg/mL]	MIC (K.P. A-1797 KPC-2 VIM-4) [µg/mL]	MIC (S. aureus MSSA-7 PC-1) [µg/mL]	Compound	MIC (E. coli ESBL4 CTX-M-15; ESBL4CTXM15, read-out: MIC alone) [µg/mL]	MIC (E. cl 144200 p99 AmpC; read-out: MIC alone) [µg/mL]
–	–	–	–	–	–	CC(C)(O/N=C(\C(=O)N[C@@H]1C(=O)N2C(C(=O)[O-])=C(C[n+]3ccccc3)CS[C@H]12)c1csc(N)n1)C(=O)O [Ceftazidime, reference compound]	> 128	128
< 4	< 4	< 4	< 4	< 4	8 to 32	NC[C@H]1CC[C@H](C(=O)N[C@H]2Cc3cccc(C(=O)O)c3OB2O)CC1 [Example 1, (R)-3-(trans-4-(aminomethyl)cyclohexanecarboxamido)-2-hydroxy-3,4-dihydro-2H-benzo[e][1,2]oxaborinine-8-carboxylic acid]	–	–
< 4	< 4	< 4	< 4	< 4	8 to 32	N[C@H]1CC[C@H](C(=O)N[C@H]2Cc3cccc(C(=O)O)c3OB2O)CC1 [Example 2, (R)-3-(trans-4-aminocyclohexanecarboxamido)-2-hydroxy-3,4-dihydro-2H-benzol[e][1,2]oxaborinine-8-carboxylic acid]	–	–
< 4	< 4	< 4	< 4	8 to 32	< 4	NC[C@H]1CC[C@H](CC(=O)N[C@H]2Cc3cccc(C(=O)O)c3OB2O)CC1 [Example 3]	–	–
< 4	< 4	< 4	< 4	8 to 32	< 4	N=C(N)NC[C@H]1CC[C@H](CC(=O)N[C@H]2Cc3cccc(C(=O)O)c3OB2O)CC1 [Example 4, (R)-3-(2-(trans-4-(guanidinomethyl)cyclohexyl)acetamido)-2-hydroxy-3,4-dihydro-2H-benzo[e][1,2]oxaborinine-8-carboxylic acid]	–	–
< 4	< 4	< 4	8 to 32	> 32	< 4	CN(C)CC(=O)NC[C@H]1CC[C@H](CC(=O)N[C@H]2Cc3cccc(C(=O)O)c3OB2O)CC1 [Example 5, (R)-3-(2-(trans-4-((2-(dimethylamino)acetamido)methyl)cyclohexyl)acetamido)-2-hydroxy-3,4-dihydro-2H-benzo[e][1,2]oxaborinine-8-carboxylic acid]	–	–
< 4	< 4	< 4	< 4	< 4	< 4	N[C@H]1CC[C@H](CC(=O)N[C@H]2Cc3cccc(C(=O)O)c3OB2O)CC1 [Example 6, (R)-3-(2-(trans-4-aminocyclohexyl)acetamido)-2-hydroxy-3,4-dihydro-2H-benzol[e][1,2]oxaborinine-8-carboxylic acid]	–	–
< 4	< 4	> 32	< 4	> 32	8 to 32	N[C@H]1CC[C@@H](CC(=O)N[C@H]2Cc3cccc(C(=O)O)c3OB2O)CC1 [Example 7, (R)-3-(2-(cis-4-aminocyclohexyl)acetamido)-2-hydroxy-3,4-dihydro-2H-benzo[e][1,2]oxaborinine-8-carboxylic acid]	–	–
< 4	< 4	8 to 32	8 to 32	> 32	< 4	CN(C)C[C@H]1CC[C@H](CC(=O)N(C)[C@H]2Cc3cccc(C(=O)O)c3OB2O)CC1 [Example 8, (R)-3-(2-(trans-4-((dimethylamino)methyl)cyclohexyl)-N-methylacetamido)-2-hydroxy-3,4-dihydro-2H-benzo[e][1,2]oxaborinine-8-carboxylic acid]	–	–
< 4	< 4	8 to 32	< 4	8 to 32	< 4	N=C(N)N[C@H]1CC[C@H](CC(=O)N[C@H]2Cc3cccc(C(=O)O)c3OB2O)CC1 [Example 9, (R)-3-(2-(trans-4-guanidinocyclohexyl)acetamido)-2-hydroxy-3,4-dihydro-2H-benzo[e][1,2]oxaborinine-8-carboxylic acid]	–	–
< 4	< 4	8 to 32	< 4	< 4	< 4	NCCNC[C@H]1CC[C@H](CC(=O)N[C@H]2Cc3cccc(C(=O)O)c3OB2O)CC1 [Example 10, (R)-3-(2-(trans-4-((2-aminoethylamino)methyl)cyclohexyl)acetamido)-2-hydroxy-3,4-dihydro-2H-benzo[e][1,2]oxaborinine-8-carboxylic acid]	–	–
< 4	< 4	8 to 32	< 4	8 to 32	–	NCC1CCC(=CC(=O)N[C@H]2Cc3cccc(C(=O)O)c3OB2O)CC1 (stereo partly drawn) [Example 11, (3R)-3-(2-(4-(aminomethyl)cyclohexylidene)acetamido)-2-hydroxy-3,4-dihydro-2H-benzo[e][1,2]oxaborinine-8-carboxylic acid]	–	–
< 4	< 4	8 to 32	8 to 32	> 32	–	NCC1CCC(CC(=O)N[C@H]2Cc3cccc(C(=O)O)c3OB2O)(C[N+](=O)[O-])CC1 (stereo partly drawn) [Example 12, (R)-3-(2-(4-(aminomethyl)-1-(nitromethyl)cyclohexyl)acetamido)-2-hydroxy-3,4-dihydro-2H-benzo[e][1,2]oxaborinine-8-carboxylic acid]	–	–
< 4	< 4	< 4	8 to 32	8 to 32	< 4	NC[C@H](N)C(=O)N[C@H]1CC[C@H](CC(=O)N[C@H]2Cc3cccc(C(=O)O)c3OB2O)CC1 [Example 13, (R)-3-(2-(trans-4-((S)-2,3-diaminopropanamido)cyclohexyl)acetamido)-2-hydroxy-3,4-dihydro-2H-benzo[e][1,2]oxaborinine-8-carboxylic acid]	–	–
< 4	< 4	> 32	< 4	8 to 32	< 4	CN(C)[C@H]1CC[C@H](CC(=O)N[C@H]2Cc3cccc(C(=O)O)c3OB2O)CC1 [Example 14, (R)-3-(2-(trans-4-(dimethylamino)cyclohexyl)acetamido)-2-hydroxy-3,4-dihydro-2H-benzo[e][1,2]oxaborinine-8-carboxylic acid]	–	–
< 4	< 4	< 4	< 4	< 4	< 4	NCCN[C@H]1CC[C@H](CC(=O)N[C@H]2Cc3cccc(C(=O)O)c3OB2O)CC1 [Example 15, (R)-3-(2-(trans-4-(2-aminoethylamino)cyclohexyl)acetamido)-2-hydroxy-3,4-dihydro-2H-benzo[e][1,2]oxaborinine-8-carboxylic acid]	–	–
< 4	< 4	8 to 32	< 4	> 32	< 4	O=C(C[C@H]1CC[C@H](N2CCNCC2)CC1)N[C@H]1Cc2cccc(C(=O)O)c2OB1O [Example 16, (R)-2-hydroxy-3-(2-(trans-4-(piperazin-1-yl)cyclohexyl)acetamido)-3,4-dihydro-2H-benzo[e][1,2]oxaborinine-8-carboxylic acid]	–	–
< 4	< 4	> 32	< 4	> 32	< 4	O=C(C[C@H]1CC[C@@H](N2CCNCC2)CC1)N[C@H]1Cc2cccc(C(=O)O)c2OB1O [Example 17, (R)-2-hydroxy-3-(2-(cis-4-(piperazin-1-yl)cyclohexyl)acetamido)-3,4-dihydro-2H-benzo[e][1,2]oxaborinine-8-carboxylic acid]	–	–
